This is an account of results in patent US5840684A, “Glycopeptide antibiotic derivatives” (Eli Lilly and Company, priority 1995, dated 1998).

Values after ≈ are worked out from the molar mass of the structure shown.

Assay [1] concerns Staphylococcus aureus SA1199B. In kind it is cell-based. How it is done: (§1) The MIC's were determined using a standard broth micro-dilution assay.
Assay [2] deals with Staphylococcus aureus S13E. In kind it is cell-based. How it is done:
as §1

Assay [3] relates to vancomycin-resistant enterococci. Nature of the assay: broth micro-dilution, mean geometric MIC. In kind it is cell-based, Enterococcus faecium and Enterococcus faecalis. The settings on record: enterococci, 24-hour incubation.
Assay [4] has as its system vancomycin-susceptible enterococci. Nature of the assay: broth micro-dilution, mean geometric MIC. It is filed as cell-based, Enterococcus faecium and Enterococcus faecalis. The settings on record: enterococci, 24-hour incubation.
Assay [5] has as its system Staphylococcus aureus 447. Briefly: broth micro-dilution MIC. It is filed as cell-based. How it is done: as §1
The test system of assay [6] is Staphylococcus aureus 446. Briefly: broth micro-dilution MIC. In kind it is cell-based. How it is done:
as §1

The test system of assay [7] is Staphylococcus aureus X778. Nature of the assay: broth micro-dilution MIC. In kind it is cell-based. How it is done:
as §1

The subject of assay [8] is Streptococcus pyogenes C203. Briefly: broth micro-dilution MIC. It is filed as cell-based. How it is done:
as §1

The test system of assay [9] is Staphylococcus aureus X400. Briefly: broth micro-dilution MIC. In kind it is cell-based. How it is done: as §1
Assay [10] concerns Staphylococcus aureus 491. Briefly: broth micro-dilution MIC. In kind it is cell-based. How it is done: as §1
Assay [11] relates to Staphylococcus aureus 489. Briefly: broth micro-dilution MIC. In kind it is cell-based. How it is done:
as §1

Assay [12] concerns Staphylococcus aureus SA1199. Nature of the assay: broth micro-dilution MIC. It is filed as cell-based. How it is done:
as §1

Assay [13] relates to Entercoccus faecium 180-1. Briefly: broth micro-dilution MIC. In kind it is cell-based. How it is done: as §1
The next assay deals with Entercoccus faecium 276. Briefly: broth micro-dilution MIC. In kind it is cell-based. How it is done:
as §1

Assay [14] deals with Staphylococcus aureus SA1199A. Briefly: broth micro-dilution MIC. In kind it is cell-based. How it is done:
as §1

Assay [15] concerns Staphylococcus epidermidis 270. Nature of the assay: broth micro-dilution MIC. It is filed as cell-based. How it is done: (§2) The formula I compounds have in vitro and in vivo activity against Gram-positive pathogenic bacteria. The MIC's were determined using a standard broth micro-dilution assay.
A further assay concerns Entercoccus faecium 180. Briefly: broth micro-dilution MIC. In kind it is cell-based. Conditions: Entercoccus faecium 180. How it is done: as §2
Assay [16] concerns Streptococcus pneumoniae P1. Briefly: broth micro-dilution MIC. It is filed as cell-based. How it is done:
as §2

Assay [17] deals with Staphylococcus haemolyticus 415. Briefly: broth micro-dilution MIC. In kind it is cell-based. How it is done:
as §2

The next assay has as its system Entercoccus faecium 2041. Briefly: broth micro-dilution MIC. In kind it is cell-based. Conditions: Entercoccus faecium 2041. How it is done: as §2
Assay [18] has as its system Enterococcus gallinarum 245. Briefly: broth micro-dilution MIC. It is filed as cell-based. The settings on record: Enterococcus gallinarum 245. How it is done:
as §2

Another assay concerns Escherichia coli EC14. Nature of the assay: broth micro-dilution MIC. In kind it is cell-based. How it is done:
as §2

In assay [19] the test system is Haemophilus influenzae RD. Briefly: broth micro-dilution MIC. It is filed as cell-based. Conditions: Haemophilus influenzae RD. How it is done: as §2
Assay [20] has as its system Staphylococcus haemolyticus 105. Briefly: broth micro-dilution MIC. In kind it is cell-based. How it is done:
as §2

For the molecule `CC(C)CC(C(=O)NC1C(=O)NC(CC(N)=O)C(=O)NC2C(=O)NC3C(=O)NC(C(=O)NC(C(=O)O)c4cc(O)cc(O)c4-c4cc3ccc4O)C(OC3CC(C)(N)C(O)C(C)O3)c3ccc(c(Cl)c3)Oc3cc2cc(c3OC2OC(CO)C(O)C(O)C2OC2CC(C)(NCc3cc4ccccc4s3)C(O)C(C)O2)Oc2ccc(cc2Cl)C1O)N(C)Cc1cc2ccccc2s1` (stereo not drawn) [Compound 276], the MIC is 1 µg/mL (≈ 0.531 µM) in [1]; 2 µg/mL (≈ 1.06 µM) in [2]; 4 µg/mL (≈ 2.12 µM) in assay [5]; 1 µg/mL (≈ 0.531 µM) in [6]; 1 µg/mL (≈ 0.531 µM) in assay [7]; not above 0.06 µg/mL in assay [8]. The MIC in [9] was 2 µg/mL (≈ 1.06 µM); in assay [10], 1 µg/mL (≈ 0.531 µM); in assay [11] it was 1 µg/mL (≈ 0.531 µM); in assay [12], 1 µg/mL (≈ 0.531 µM); in assay [13], 0.25 µg/mL (≈ 0.133 µM); with Entercoccus faecium 276 it was 1 µg/mL (≈ 0.531 µM). In addition, the MIC is 0.25 µg/mL (≈ 0.133 µM) in assay [14]; 4 µg/mL (≈ 2.12 µM) in assay [15]; 4 µg/mL (≈ 2.12 µM) with Entercoccus faecium 180; not above 0.06 µg/mL in [16]; 4 µg/mL (≈ 2.12 µM) in [17]; 1 µg/mL (≈ 0.531 µM) against Entercoccus faecium 2041. Also, the MIC in assay [18] is 4 µg/mL (≈ 2.12 µM); in the assay with Escherichia coli EC14, more than 64 µg/mL; in assay [19], more than 64 µg/mL; in [20], 4 µg/mL (≈ 2.12 µM). For the same molecule, the “mean geometric MIC, Vancomycin Resistant Strains” value in assay [3] stood at 23 µg/mL. Also, in [4], the “mean geometric MIC, Vancomycin Sensitive Strains” value amounted to 1.3 µg/mL.

Turning to `CC(C)CC(C(=O)NC1C(=O)NC(CC(N)=O)C(=O)NC2C(=O)NC3C(=O)NC(C(=O)NC(C(=O)O)c4cc(O)cc(O)c4-c4cc3ccc4O)C(OC3CC(C)(N)C(O)C(C)O3)c3ccc(c(Cl)c3)Oc3cc2cc(c3OC2OC(CO)C(O)C(O)C2OC2CC(C)(NCc3ccccn3)C(O)C(C)O2)Oc2ccc(cc2Cl)C1O)N(C)Cc1ccccn1` (stereo not drawn) [Compound 281], the MIC in [1] was 32 µg/mL (≈ 18 µM); in assay [2] it was 32 µg/mL (≈ 18 µM); in [5] it was more than 64 µg/mL; in assay [6], 64 µg/mL (≈ 36.1 µM); in assay [7], 16 µg/mL (≈ 9.02 µM); in [8], 0.5 µg/mL (≈ 0.282 µM). Moreover, the MIC in assay [9] was more than 64 µg/mL; in assay [10], more than 64 µg/mL; in [11], 32 µg/mL (≈ 18 µM); in assay [12] it was more than 64 µg/mL; in assay [13], 4 µg/mL (≈ 2.25 µM); with Entercoccus faecium 276, 8 µg/mL (≈ 4.51 µM). Besides, the MIC was 4 µg/mL (≈ 2.25 µM) in [14]; more than 64 µg/mL in assay [15]; more than 64 µg/mL against Entercoccus faecium 180; not above 0.06 µg/mL in [16]; more than 64 µg/mL in assay [17]; 8 µg/mL (≈ 4.51 µM) in the assay with Entercoccus faecium 2041. Also, the MIC (in assay [18]; in the assay with Escherichia coli EC14; in assay [19]; in [20]) was more than 64 µg/mL in each case. For the same molecule, the “mean geometric MIC, Vancomycin Resistant Strains” value in [3] was more than 128 µg/mL. Also, in assay [4], the “mean geometric MIC, Vancomycin Sensitive Strains” value stood at 37 µg/mL.

As to `CC(C)CC(C(=O)NC1C(=O)NC(CC(N)=O)C(=O)NC2C(=O)NC3C(=O)NC(C(=O)NC(C(=O)O)c4cc(O)cc(O)c4-c4cc3ccc4O)C(OC3CC(C)(N)C(O)C(C)O3)c3ccc(c(Cl)c3)Oc3cc2cc(c3OC2OC(CO)C(O)C(O)C2OC2CC(C)(NCc3c4ccccc4cc4ccccc34)C(O)C(C)O2)Oc2ccc(cc2Cl)C1O)N(C)Cc1c2ccccc2cc2ccccc12` (stereo not drawn) [Compound 284], the MIC in assay [1] is 4 µg/mL (≈ 2.03 µM); in assay [2] it was 4 µg/mL (≈ 2.03 µM); in assay [5] it was 8 µg/mL (≈ 4.05 µM); in [6], 8 µg/mL (≈ 4.05 µM); in [7], 1 µg/mL (≈ 0.507 µM); in [8], not above 0.06 µg/mL. Besides, the MIC is 4 µg/mL (≈ 2.03 µM) in assay [9]; 2 µg/mL (≈ 1.01 µM) in assay [10]; 2 µg/mL (≈ 1.01 µM) in assay [11]; 8 µg/mL (≈ 4.05 µM) in assay [12]; 0.5 µg/mL (≈ 0.253 µM) in assay [13]; 8 µg/mL (≈ 4.05 µM) against Entercoccus faecium 276. Besides, the MIC in assay [14] was 0.25 µg/mL (≈ 0.127 µM); in assay [15], 16 µg/mL (≈ 8.11 µM); against Entercoccus faecium 180 it was 8 µg/mL (≈ 4.05 µM); in [16], not above 0.06 µg/mL; in assay [17], 32 µg/mL (≈ 16.2 µM); in the assay with Entercoccus faecium 2041, 1 µg/mL (≈ 0.507 µM). For the same molecule, the MIC in assay [18] is 32 µg/mL (≈ 16.2 µM); in the assay on Escherichia coli EC14 it was more than 64 µg/mL; in [19] it was more than 64 µg/mL; in assay [20] it was 32 µg/mL (≈ 16.2 µM). The “mean geometric MIC, Vancomycin Resistant Strains” value in [3] worked out at 38 µg/mL. Also, the “mean geometric MIC, Vancomycin Sensitive Strains” value in [4] was found to be 2.3 µg/mL.

For `CC(C)CC(C(=O)NC1C(=O)NC(CC(N)=O)C(=O)NC2C(=O)NC3C(=O)NC(C(=O)NC(C(=O)O)c4cc(O)cc(O)c4-c4cc3ccc4O)C(OC3CC(C)(N)C(O)C(C)O3)c3ccc(c(Cl)c3)Oc3cc2cc(c3OC2OC(CO)C(O)C(O)C2OC2CC(C)(NCc3ccc(N(C)c4ccccc4)cc3)C(O)C(C)O2)Oc2ccc(cc2Cl)C1O)N(C)Cc1ccc(N(C)c2ccccc2)cc1` (stereo not drawn) [Compound 260], the MIC in assay [1] was 2 µg/mL (≈ 1.01 µM); in [2], 4 µg/mL (≈ 2.02 µM); in [5], 4 µg/mL (≈ 2.02 µM); in [6], 2 µg/mL (≈ 1.01 µM); in assay [7] it was 1 µg/mL (≈ 0.504 µM); in [8], not above 0.06 µg/mL. Besides, the MIC in assay [9] stood at 4 µg/mL (≈ 2.02 µM); in assay [10], 1 µg/mL (≈ 0.504 µM); in assay [11], 2 µg/mL (≈ 1.01 µM); in assay [12], 2 µg/mL (≈ 1.01 µM); in [13], 0.25 µg/mL (≈ 0.126 µM); against Entercoccus faecium 276, 2 µg/mL (≈ 1.01 µM). Moreover, the MIC in [14] is 0.5 µg/mL (≈ 0.252 µM); in assay [15] it was 1 µg/mL (≈ 0.504 µM); against Entercoccus faecium 180 it was 0.5 µg/mL (≈ 0.252 µM); in assay [16], not above 0.06 µg/mL; in [17], 2 µg/mL (≈ 1.01 µM); against Entercoccus faecium 2041, 1 µg/mL (≈ 0.504 µM). Besides, the MIC in assay [18] was 0.25 µg/mL (≈ 0.126 µM); against Escherichia coli EC14, more than 64 µg/mL; in assay [19] it was more than 64 µg/mL; in assay [20], 1 µg/mL (≈ 0.504 µM). Also, in [3], the “mean geometric MIC, Vancomycin Resistant Strains” value was found to be 4.8 µg/mL. Also, the “mean geometric MIC, Vancomycin Sensitive Strains” value in assay [4] came to 1.1 µg/mL.

`CC(C)CC(C(=O)NC1C(=O)NC(CC(N)=O)C(=O)NC2C(=O)NC3C(=O)NC(C(=O)NC(C(=O)O)c4cc(O)cc(O)c4-c4cc3ccc4O)C(OC3CC(C)(N)C(O)C(C)O3)c3ccc(c(Cl)c3)Oc3cc2cc(c3OC2OC(CO)C(O)C(O)C2OC2CC(C)(NCc3ccc(Cc4ccccc4)cc3)C(O)C(C)O2)Oc2ccc(cc2Cl)C1O)N(C)Cc1ccc(Cc2ccccc2)cc1` (stereo not drawn) [Compound 270]: the MIC in assay [1] was 2 µg/mL (≈ 1.02 µM); in [2], 2 µg/mL (≈ 1.02 µM); in assay [5] it was 0.5 µg/mL (≈ 0.256 µM); in assay [6], 1 µg/mL (≈ 0.512 µM); in assay [7] it was 0.5 µg/mL (≈ 0.256 µM); in assay [8], not above 0.06 µg/mL. The MIC is 1 µg/mL (≈ 0.512 µM) in [9]; 0.25 µg/mL (≈ 0.128 µM) in [10]; 0.25 µg/mL (≈ 0.128 µM) in [11]; 1 µg/mL (≈ 0.512 µM) in [12]; not above 0.06 µg/mL in [13]; 1 µg/mL (≈ 0.512 µM) in the assay on Entercoccus faecium 276. Besides, the MIC in assay [14] was not above 0.06 µg/mL; in [15] it was 1 µg/mL (≈ 0.512 µM); against Entercoccus faecium 180 it was 0.25 µg/mL (≈ 0.128 µM); in assay [16] it was not above 0.06 µg/mL; in assay [17] it was 2 µg/mL (≈ 1.02 µM); against Entercoccus faecium 2041, 0.5 µg/mL (≈ 0.256 µM). The MIC in assay [18] is 2 µg/mL (≈ 1.02 µM); in the assay with Escherichia coli EC14, more than 64 µg/mL; in assay [19], more than 64 µg/mL; in assay [20], 4 µg/mL (≈ 2.05 µM). Moreover, the “mean geometric MIC, Vancomycin Resistant Strains” value in [3] stood at 2.8 µg/mL. Also, the “mean geometric MIC, Vancomycin Sensitive Strains” value in [4] was 0.66 µg/mL.
